Test results taken from patent publication US20160324738A1, “Oral Compositions Containing Stannous” (The Procter & Gamble Company, priority 2015, published 2016).

Test: In-vitro pH cycling study of enamel fluoride uptake (enamel fluoridation)
Design: species or system human
Settings: both salts at levels providing 1100 ppm of fluoride ion; versus sodium fluoride
Experimental: An in-vitro pH cycling study was conducted to evaluate the effect of excess metals and its modulation on fluoride uptake in pre-demineralized human enamel specimens.

Structure (SMILES): [F][Sn][F] [stannous fluoride]
- enamel fluoridation: less than what is typically seen with sodium fluoride
